Measurements from ChEMBL document CHEMBL4699477, “Tricyclic sulfones as potent, selective and efficacious RORγt inverse agonists - Exploring C6 and C8 SAR using late-stage functionalization” (Bioorg Med Chem Lett, 2020).
≈ marks a conversion by molar mass, not a printed value.

How the values were obtained:
[1] = biological target: T1, Nuclear receptor ROR-beta (Homo sapiens, UniProt Q92753); assay: Inhibition of GAL4-fused RORbeta (unknown origin)
T1 sequence (Q92753 whole entry): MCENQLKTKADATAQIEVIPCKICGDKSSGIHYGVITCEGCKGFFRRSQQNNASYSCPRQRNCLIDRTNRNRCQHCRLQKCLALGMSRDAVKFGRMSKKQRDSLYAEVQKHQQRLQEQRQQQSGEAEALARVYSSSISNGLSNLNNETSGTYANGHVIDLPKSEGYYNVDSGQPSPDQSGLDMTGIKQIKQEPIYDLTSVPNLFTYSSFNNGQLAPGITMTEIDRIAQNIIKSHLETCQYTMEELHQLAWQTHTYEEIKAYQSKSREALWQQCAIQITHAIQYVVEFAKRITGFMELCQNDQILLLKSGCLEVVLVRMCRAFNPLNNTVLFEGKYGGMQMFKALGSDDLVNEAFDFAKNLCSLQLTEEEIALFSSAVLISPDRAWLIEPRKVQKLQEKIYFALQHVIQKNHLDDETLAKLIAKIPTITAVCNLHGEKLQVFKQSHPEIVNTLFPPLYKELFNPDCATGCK

[2] = Total AUC in cynomolgus monkey at 2 mg/kg, po; assay type: ADME, organism-based, Macaca fascicularis; parameters: route oral, time AUCmax, dose 2 mg/kg; settings: in vivo
Cytochrome P450 2C8 = biological target: T2, Cytochrome P450 2C8 (Homo sapiens, UniProt P10632); assay: Inhibition of recombinant CYP2C8 (unknown origin); assay type: ADME
T2 sequence (P10632 whole entry): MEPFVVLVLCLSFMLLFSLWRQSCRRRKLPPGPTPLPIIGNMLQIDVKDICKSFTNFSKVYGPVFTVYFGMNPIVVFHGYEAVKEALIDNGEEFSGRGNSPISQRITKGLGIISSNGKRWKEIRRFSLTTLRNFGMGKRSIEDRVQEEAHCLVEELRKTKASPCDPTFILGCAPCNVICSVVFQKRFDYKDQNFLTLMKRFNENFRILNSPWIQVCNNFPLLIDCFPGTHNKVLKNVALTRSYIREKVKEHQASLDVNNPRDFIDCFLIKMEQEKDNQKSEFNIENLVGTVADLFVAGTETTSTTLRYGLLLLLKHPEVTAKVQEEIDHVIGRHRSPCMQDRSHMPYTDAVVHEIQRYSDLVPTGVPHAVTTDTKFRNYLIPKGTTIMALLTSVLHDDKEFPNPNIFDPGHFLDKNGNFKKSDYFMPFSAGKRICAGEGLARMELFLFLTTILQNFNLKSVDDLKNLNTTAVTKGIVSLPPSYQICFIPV

[3] = Total AUC in BALB/c mouse at 2 mg/kg, iv; assay type: ADME, organism-based; parameters: route intravenous, time AUCmax, dose 2 mg/kg; settings: in vivo
[4] = Half life in dog at 1 mg/kg, iv; assay type: ADME, organism-based, Canis lupus familiaris; settings: in vivo
[5] = Cmax in BALB/c mouse at 4 mg/kg, po; assay type: ADME, organism-based; parameters: route oral, dose 4 mg/kg; settings: in vivo
[6] = Clearance in rat at 2 mg/kg, iv; assay type: ADME, organism-based; settings: in vivo
Cytochrome P450 3A4 = Cytochrome P450 3A4 (Homo sapiens, UniProt P08684); assay: Inhibition of recombinant CYP3A4 (unknown origin); assay type: ADME
[7] = Fraction unbound in human plasma; assay type: ADME, cell-free
[8] = Cmax in dog at 2 mg/kg, po; assay type: ADME, organism-based, Canis lupus familiaris; parameters: route oral, dose 2 mg/kg; settings: in vivo
[9] = biological target: T3, Nuclear receptor ROR-alpha (Homo sapiens, UniProt P35398); assay: Inhibition of GAL4-fused RORalpha (unknown origin)
T3 sequence (P35398 whole entry): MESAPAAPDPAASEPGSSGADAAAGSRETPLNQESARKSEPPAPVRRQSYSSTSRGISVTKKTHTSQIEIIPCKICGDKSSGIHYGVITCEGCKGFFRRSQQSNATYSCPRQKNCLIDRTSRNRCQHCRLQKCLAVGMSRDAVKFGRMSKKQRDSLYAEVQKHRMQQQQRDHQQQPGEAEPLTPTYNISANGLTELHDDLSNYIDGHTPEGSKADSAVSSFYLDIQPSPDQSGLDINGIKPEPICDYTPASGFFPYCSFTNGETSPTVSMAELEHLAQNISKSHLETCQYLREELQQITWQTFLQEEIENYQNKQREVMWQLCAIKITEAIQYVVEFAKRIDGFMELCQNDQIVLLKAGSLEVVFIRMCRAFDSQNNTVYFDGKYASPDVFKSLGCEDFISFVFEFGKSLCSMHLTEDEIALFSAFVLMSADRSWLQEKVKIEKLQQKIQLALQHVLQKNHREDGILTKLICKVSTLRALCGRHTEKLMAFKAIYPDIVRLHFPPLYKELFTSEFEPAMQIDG

[10] = Half life in rat at 2 mg/kg, iv; assay type: ADME, organism-based; settings: in vivo
[11] = Total AUC in dog at 1 mg/kg, iv; assay type: ADME, organism-based, Canis lupus familiaris; parameters: route intravenous, time AUCmax, dose 1 mg/kg; settings: in vivo
[12] = Clearance in dog at 1 mg/kg, iv; assay type: ADME, organism-based, Canis lupus familiaris; settings: in vivo
[13] = Metabolic stability in mouse liver microsomes assessed as half life; assay type: ADME, Microsome
[14] = Oral bioavailability in cynomolgus monkey at 2 mg/kg; assay type: ADME, organism-based, Macaca fascicularis; settings: in vivo
[15] = Half life in cynomolgus monkey at 1 mg/kg, iv; assay type: ADME, organism-based, Macaca fascicularis; settings: in vivo
[16] = Clearance in BALB/c mouse at 2 mg/kg, iv; assay type: ADME, organism-based; settings: in vivo
[17] = Permeability in human Caco-2 cells; assay type: ADME, cell-based; settings: read-out: permeability
[18] = Solubility of compound at pH 1; assay type: physicochemical; settings: buffer
Cytochrome P450 2C9 = Cytochrome P450 2C9 (Homo sapiens, UniProt P11712); assay: Inhibition of recombinant CYP2C9 (unknown origin); assay type: ADME
[19] = Volume of distribution at steady state in rat at 2 mg/kg, iv; assay type: ADME, organism-based; settings: in vivo, read-out: Vdss
[20] = biological target: T4, Oxysterols receptor LXR-alpha (Homo sapiens, UniProt Q13133); assay: Inverse agonist activity of LXRalpha (unknown origin)
T4 sequence (Q13133 whole entry): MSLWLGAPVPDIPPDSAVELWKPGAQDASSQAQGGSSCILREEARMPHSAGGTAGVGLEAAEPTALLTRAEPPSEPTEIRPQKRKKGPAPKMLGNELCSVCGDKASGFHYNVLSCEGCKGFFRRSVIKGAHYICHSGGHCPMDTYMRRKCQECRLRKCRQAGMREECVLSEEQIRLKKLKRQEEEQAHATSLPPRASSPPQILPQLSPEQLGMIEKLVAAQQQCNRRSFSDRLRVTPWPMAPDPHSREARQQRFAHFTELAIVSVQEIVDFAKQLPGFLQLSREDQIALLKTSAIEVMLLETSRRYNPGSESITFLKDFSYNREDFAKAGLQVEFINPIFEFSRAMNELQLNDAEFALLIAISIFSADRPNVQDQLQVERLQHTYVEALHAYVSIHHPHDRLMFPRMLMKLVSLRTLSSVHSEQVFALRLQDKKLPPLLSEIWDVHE

[21] = Metabolic stability in human liver microsomes assessed as half life; assay type: ADME, Microsome
[22] = biological target: Voltage-gated inwardly rectifying potassium channel KCNH2 (Homo sapiens, UniProt Q12809); assay: Inhibition of human ERG by patch clamp assay
[23] = Cmax in cynomolgus monkey at 2 mg/kg, po; assay type: ADME, organism-based, Macaca fascicularis; parameters: route oral, dose 2 mg/kg; settings: in vivo
[24] = Cmax in rat at 4 mg/kg, po; assay type: ADME, organism-based; parameters: route oral, dose 4 mg/kg; settings: in vivo
[25] = Solubility of compound at pH 7.4; assay type: physicochemical; settings: buffer
[26] = Solubility of compound at pH 6.5; assay type: physicochemical; settings: buffer
[27] = Clearance in cynomolgus monkey at 1 mg/kg, iv; assay type: ADME, organism-based, Macaca fascicularis; settings: in vivo

Cytochrome P450 2C9, sequence (P11712 whole entry): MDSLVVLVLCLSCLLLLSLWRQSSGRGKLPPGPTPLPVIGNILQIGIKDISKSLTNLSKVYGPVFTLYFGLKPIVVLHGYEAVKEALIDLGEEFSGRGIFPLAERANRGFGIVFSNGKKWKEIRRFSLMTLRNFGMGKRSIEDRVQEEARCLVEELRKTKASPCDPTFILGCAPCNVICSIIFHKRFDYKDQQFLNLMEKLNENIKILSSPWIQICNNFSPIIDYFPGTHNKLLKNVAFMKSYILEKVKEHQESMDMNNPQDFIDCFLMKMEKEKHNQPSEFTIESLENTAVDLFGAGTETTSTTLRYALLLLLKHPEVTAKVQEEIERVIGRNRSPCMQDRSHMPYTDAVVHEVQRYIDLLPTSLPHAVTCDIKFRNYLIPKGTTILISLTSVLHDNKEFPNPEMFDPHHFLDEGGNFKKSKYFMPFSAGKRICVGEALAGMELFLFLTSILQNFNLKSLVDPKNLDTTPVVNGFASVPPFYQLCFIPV
Voltage-gated inwardly rectifying potassium channel KCNH2, sequence (Q12809 whole entry): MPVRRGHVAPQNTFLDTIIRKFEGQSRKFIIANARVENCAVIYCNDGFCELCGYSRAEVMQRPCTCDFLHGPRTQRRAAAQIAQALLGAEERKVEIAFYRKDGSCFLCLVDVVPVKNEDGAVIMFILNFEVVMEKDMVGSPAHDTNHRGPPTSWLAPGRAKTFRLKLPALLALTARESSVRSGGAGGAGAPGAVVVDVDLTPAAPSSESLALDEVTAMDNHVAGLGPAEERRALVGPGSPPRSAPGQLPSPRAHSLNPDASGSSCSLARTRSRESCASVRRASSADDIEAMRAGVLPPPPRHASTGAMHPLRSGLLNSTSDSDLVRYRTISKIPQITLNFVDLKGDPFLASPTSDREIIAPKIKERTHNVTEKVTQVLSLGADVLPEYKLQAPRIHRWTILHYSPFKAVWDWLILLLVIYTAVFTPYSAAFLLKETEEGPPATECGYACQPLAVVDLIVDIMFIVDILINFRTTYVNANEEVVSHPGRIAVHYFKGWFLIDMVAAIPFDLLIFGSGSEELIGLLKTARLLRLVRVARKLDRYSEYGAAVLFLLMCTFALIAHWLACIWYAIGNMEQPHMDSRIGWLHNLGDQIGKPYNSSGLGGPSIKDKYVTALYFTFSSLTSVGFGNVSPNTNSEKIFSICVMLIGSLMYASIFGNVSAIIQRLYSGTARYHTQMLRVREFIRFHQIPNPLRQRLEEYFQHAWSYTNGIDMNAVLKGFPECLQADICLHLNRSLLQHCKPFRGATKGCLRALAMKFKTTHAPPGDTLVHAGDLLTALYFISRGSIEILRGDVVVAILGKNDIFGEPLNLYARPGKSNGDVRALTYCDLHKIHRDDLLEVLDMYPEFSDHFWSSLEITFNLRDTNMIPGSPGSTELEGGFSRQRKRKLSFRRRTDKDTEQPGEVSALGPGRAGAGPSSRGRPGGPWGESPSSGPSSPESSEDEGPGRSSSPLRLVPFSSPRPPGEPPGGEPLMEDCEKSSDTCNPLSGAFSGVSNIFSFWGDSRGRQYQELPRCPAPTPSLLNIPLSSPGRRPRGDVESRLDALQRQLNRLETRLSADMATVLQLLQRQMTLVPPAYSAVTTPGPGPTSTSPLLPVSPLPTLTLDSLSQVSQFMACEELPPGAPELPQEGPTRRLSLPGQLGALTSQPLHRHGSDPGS
Cytochrome P450 3A4, sequence (P08684 whole entry): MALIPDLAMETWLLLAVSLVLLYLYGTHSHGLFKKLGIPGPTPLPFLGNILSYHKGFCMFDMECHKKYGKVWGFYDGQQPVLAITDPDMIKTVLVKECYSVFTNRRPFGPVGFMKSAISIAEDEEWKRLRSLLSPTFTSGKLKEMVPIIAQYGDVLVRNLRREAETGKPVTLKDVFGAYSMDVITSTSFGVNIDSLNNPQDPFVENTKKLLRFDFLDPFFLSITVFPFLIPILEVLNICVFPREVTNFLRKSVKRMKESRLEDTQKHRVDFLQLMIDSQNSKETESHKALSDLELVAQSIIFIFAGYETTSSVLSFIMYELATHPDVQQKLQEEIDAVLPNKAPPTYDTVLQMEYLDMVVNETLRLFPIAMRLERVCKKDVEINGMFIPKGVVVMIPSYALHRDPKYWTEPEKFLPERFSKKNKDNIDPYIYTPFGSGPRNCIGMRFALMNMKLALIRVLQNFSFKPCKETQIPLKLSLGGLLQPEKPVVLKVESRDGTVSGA

C[C@H]1C[C@H](C(=O)O)CC[C@H]1C(=O)N1CC[C@@]2(S(=O)(=O)c3ccccc3)c3cc(F)c(C(F)(C(F)(F)F)C(F)(F)F)cc3CC[C@@H]12
EC50 [1]: > 10 µM | AUC [2]: 55 µM·h | IC50 (Cytochrome P450 2C8): 1.9 µM | AUC [3]: 20 µM·h | half-life [4]: 28 h | Cmax [5]: 4.6 µM | clearance [6]: 2.6 mL/min/kg | IC50 (Cytochrome P450 3A4): > 20 µM | fraction unbound [7]: 0.012 | Cmax [8]: 3.8 µM | EC50 [9]: > 10 µM | half-life [10]: 5.8 h | AUC [11]: 80 µM·h | clearance [12]: 0.3 mL/min/kg | half-life [13]: > 2 h | bioavailability [14]: 100% | half-life [15]: 27 h | clearance [16]: 2.5 mL/min/kg | Papp [17]: 12 ×10⁻⁶ cm/s | solubility [18]: 1.4 µg/mL (≈ 2.1 µM) | IC50 (Cytochrome P450 2C9): > 20 µM | Vd [19]: 1.3 L/kg | EC50 [20]: > 12 µM | half-life [21]: > 2 h | IC50 [22]: 18 µM | Cmax [23]: 3.9 µM | Cmax [24]: 4.1 µM | solubility [25]: 1600 µg/mL (≈ 2400 µM) | solubility [26]: 350 µg/mL (≈ 524 µM) | clearance [27]: 1.1 mL/min/kg
